From US20090023186A1, “USE OF VALPROIC ACID FOR ENHANCING PRODUCTION OF RECOMBINANT PROTEINS IN MAMMALIAN CELLS” (EXCELLGENE SA, priority 2007, published 2009) come the findings set out here.

This assay concerns HEK293E cells. As to the kind of experiment: Combination with IDMTs, IgG batch yield by ELISA (Example 6). To be noted: VPA 4 mmol/l; no addition = 100%; day 5 after transfection. Format: cell-based, Human. The method, then:
10 million suspension-adapted HEK293E cells were resuspended in 0.5 ml of Ex-Cell 293 HEK 293 serum-free medium with 4 mmol/l L-glutamine (Cat. No. 14571C-[…]; Lot No. 6A0093; SAFC Biosciences, Lenexa, Kans., USA, “Ex-Cell” medium; note: “Ex-Cell” medium-as used herein-refers to a medium comprising 4 mmol/l L-glutamine) in a 50-ml filter tube each (TPP AG, Trasadingen, Switzerland; Cat. No. 87050, Lot 20050174). In a separate set, 10 million suspension-adapted CHO DG44 cells were resuspended in 0.5 ml of ProCHO5 serum-free medium with 4 mmol/[…] hypoxanthine and 0.194 g/l thymidine (BioWhittaker (Lonza), Belgium; Cat. No. BE12-[…]; Lot No. 7MB0040; “ProCHO5” medium; note: “ProCHO5” medium-as used herein-refers to a medium comprising 4 mmol/[…] hypoxanthine and 0.194 g/l thymidine) in a 50-ml filter tube each (TPP AG, Trasadingen, Switzerland; Cat. No. 87050, Lot 20050174). Then 12.5 μg plasmid DNA at a concentration of 1 μg/μl was added in each tube with the following composition 50% (6.25 μg) p-LC (SEQ ID NO: 1) 50% (6.25 μg) p-HC (SEQ ID NO: 3). Plasmid p-LC comprises the genetic information for the production of the light chain of an IgG antibody, plasmid p-HC comprises the genetic information for the production of the heavy chain of an IgG antibody. The particular vector constructs used in the present invention can also be obtained from the inventors. The inventors can be contacted via e-mail at […]. […] In short, Goat anti-human kappa light chain IgG (Biosource) was used for coating the ELISA-plates, and with AP-conjugated goat anti-human gamma chain IgG (Biosource) the synthesized IgG1 was detected. […] Absorption was measured at 405 nm against 490 nm using a microplate reader (SPECTRAmaxTM340; Molecular Devices, Palo Alto, Calif., USA).

Consider `CCCC(CCC)C(=O)O` [VPA, valproic acid], for which the “Fold increase in batch yield over control” value was 520% ± 30%.
